Measured values published in paper PMC8348110, “A Novel Peptide Derived from the Transmembrane Domain of Romo1 Is a Promising Candidate for Sepsis Treatment and Multidrug-Resistant Bacteria” (International Journal of Molecular Sciences, 2021).
≈ marks a conversion by molar mass, not a printed value. Residues, ends and D or L forms follow the SMILES beside them.

Legend:
[1] = system: Pseudomonas aeruginosa ATCC 27853; assay type: cell-based
In short: (§1)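 Peptides are tested in low-salt phosphate buffer (10 mM, pH 7.4, 1% TS broth) against 5 × 10^5 CFU/mL mid-log cultures for 1 h, over a two-fold range topping at 64 μg/mL. Bactericidal endpoint is the lowest concentration leaving no colonies after overnight plating at 37 °C.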

[2] = system: Staphylococcus aureus ATCC 29213; assay type: cell-based
In short: as §1

[3] = system: Streptococcus pneumoniae NCCP 14585; assay type: cell-based; conditions: NCCP 14585, 1 h
In short: as §1

[4] = system: Acinetobacter baumannii ATCC 19606; assay: Modified MBC determination; assay type: cell-based; conditions: Table 2
Procedure: (§2) The minimum bactericidal concentration (MBC) was determined as previously described with minor modifications. Briefly, bacteria were cultured in the mid-log phase and diluted to 5 × 10^5 colony-forming unit (CFU)/mL in 10 mM sodium phosphate buffer (pH 7.4) with a 1% volume of TS broth. They were incubated for 1 h with various peptides which were two-fold diluted serially from 64 μg/mL to 0 μg/mL concentrations in a 96-well plate. The samples were inoculated TS agar plate and incubated overnight at 37 °C. The value of MBC was determined at the lowest concentrations at which no colonies were identified.
(§3) We used the CFU counting method to measure antibacterial activity, with all bacteria cultured to the mid-log phase in an appropriate broth medium. Bacterial CFUs were counted after overnight culture at 37 °C on TS or LB agar plates. The MBC value and antibacterial activity in blood components were determined as previously described. Mouse and human whole blood were collected and diluted with PBS (pH 7.4) to measure the ex vivo antibacterial activity of AMPR-22. For that test, AMPR-22 (10 μg) was added to each whole blood solution and incubated at 37 °C with shaking at 200 rpm. At each time point, it was incubated with bacteria (1 × 10^3 CFU) for 30 min. Each sample was inoculated on an LB agar plate, and CFU counting was performed. To measure the in vivo activity of AMPR-22, 1 × 10^8 CFU of bacteria were injected into BALB/c mice, and an hour later, 10 mg/kg of the test peptides were injected. Blood samples were collected by tail cut, serially diluted with PBS (pH 7.4), and inoculated on LB-agar plates, followed by CFU counting. To estimate the functional half-life of AMPR-22, 40 mg/kg of each tested peptide were injected into mice. Whole blood sampling was performed by cardiac puncture, and the plasma was isolated by centrifugation (2000× g, 15 min). The isolated plasma was incubated with bacteria (1 × 10^3 CFU) for an hour, and then the CFU counting method was performed.

[5] = system: Bacillus subtilis ATCC 6633; assay: Modified MBC determination; assay type: cell-based; conditions: Table 2
Procedure: as §2, §3

[6] = system: Enterobacter aerogenes ATCC 13048; assay: Modified MBC determination; assay type: cell-based; conditions: Table 2
Procedure: as §2, §3

[7] = system: Enterococcus faecalis ATCC 19433; assay: Modified MBC determination; assay type: cell-based; conditions: Table 2
Procedure: as §2, §3

[8] = system: Enterococcus faecium ATCC 19434; assay: Modified MBC determination; assay type: cell-based; conditions: Table 2
Procedure: as §2, §3

[9] = system: Escherichia coli ATCC 25922; assay: Modified MBC determination; assay type: cell-based; conditions: Table 2
Procedure: as §2, §3

[10] = system: Klebsiella pneumoniae ATCC 13883; assay: Modified MBC determination; assay type: cell-based; conditions: Table 2
Procedure: as §2, §3

[11] = system: Streptomyces sindenensis ATCC 23963; assay: Modified MBC determination; assay type: cell-based; conditions: Table 2
Procedure: as §2, §3

[12] = system: Vancomycin-resistant E. faecium NCCP 11522; assay type: cell-based, Enterococcus faecium; conditions: Vancomycin-resistant NCCP 11522, 1 h
Procedure: as §2
We used the CFU counting method to measure antibacterial activity, with all bacteria cultured to the mid-log phase in an appropriate broth medium. Bacterial CFUs were counted after overnight culture at 37 °C on TS or LB agar plates. The MBC value and antibacterial activity in blood components were determined as previously described. Mouse and human whole blood were collected and diluted with PBS (pH 7.4) to measure the ex vivo antibacterial activity of AMPR-22. For that test, AMPR-22 (10 μg) was added to each whole blood solution and incubated at 37 °C with shaking at 200 rpm. At each time point, it was incubated with bacteria (1 × 10^3 CFU) for 30 min. Each sample was inoculated on an LB agar plate, and CFU counting was performed. […]

BALB/c mice = assay: In vivo toxicity, single intravenous dose; design: species or system mouse; conditions: 100 mg/kg single intravenous dose, tracked for 15 days, compared with PBS-treated mice
Procedure: We compared the toxicity of AMPR-22 in mammalian cells with that of AMPR-11 and AMPR-21. […] To investigate the toxicity of AMPR-22 to white blood cells, we isolated fresh peripheral blood mononuclear cells (PBMCs) from humans and mice. […] To check for in vivo toxicity before administering AMPR-22 to mice in a murine model of sepsis, we intravenously injected 100 mg/kg single dose of AMPR-22 (10-fold higher than the working dose) into BALB/c mice and tracked them for 15 days.
Figure 3 The cytotoxicity of AMPR-22. (A) The cell toxicity of the AMPR-11 analog peptides was measured using the MTT assay in HeLa and HEK293 cells. Daptomycin and magainin 2 were also tested. (B) A hemolysis assay was performed in mouse and human blood. The percentage of hemolyzed erythrocytes was measured using a spectrophotometer. Peptides were serially diluted and incubated with cells for an hour. (C) The toxicity of leukocytes was measured using a flow cytometric assay with LIVE/DEAD fixable dead cell™ stain dye and freshly isolated mouse and human PBMCs. […] Data represent the means ± SD of more than three independent experiments.

[13] = system: P. aeruginosa or S. aureus; assay type: in vitro ADME
Procedure: Figure 4 The antibacterial activity of AMPR-22 in various physiological conditions. (A,B) Effects of AMPR-22 activity in mouse plasma and human serum. AMPR-22 was incubated with blood components for the indicated times (0, 15, 30, 60, 90, 120, 150, and 180 min) and then with P. aeruginosa or S. aureus for an hour. (C,D) Effects of AMPR-22 activity in low-density lipoprotein (LDL), high-density lipoprotein (HDL), and bovine serum albumin. AMPR-22 was incubated with blood components for the indicated times (0, 30, 60, 120, and 180 min) and then with P. aeruginosa or S. aureus for an hour. (E) Effects of AMPR-22 activity in whole blood. AMPR-22 was incubated with mouse and human whole blood for the indicated times (0, 30, 60, 90, 120, and 180 min) and then with P. aeruginosa for an hour. (F,G) The antibacterial activity of AMPR-22 in vivo. AMPR-22 was intravenously administered into P. aeruginosa-infected mice, and blood was collected from the tail veins of the mice at the indicated times (0, 15, 30, 60, and 90 min). (F) The relative CFU in blood samples was calculated using the following formula: CFU at indicated time ÷ CFU at 0 min × 100 (%). (G) The relative CFU of blood samples obtained from F was re-graphed using the following formula: CFU of AMPR-22-treated mouse group ÷ CFU of control (PBS) group × 100 (%). (H) The functional half-life measurement of AMPR-22. AMPR-22 was intravenously administered into mice, and blood was collected at the indicated times (0, 5, 30, 60, 90, 120, 150, and 180 min). The blood was collected by cardiac puncture, and the plasma was isolated by centrifugation. Then, the plasma was incubated with P. aeruginosa for an hour. The antibacterial activity was measured using a colony-forming unit assay. […]
We used the CFU counting method to measure antibacterial activity, with all bacteria cultured to the mid-log phase in an appropriate broth medium. Bacterial CFUs were counted after overnight culture at 37 °C on TS or LB agar plates. The MBC value and antibacterial activity in blood components were determined as previously described. […]

CC[C@H](C)[C@H](NC(=O)CNC(=O)CNC(=O)[C@@H](NC(=O)[C@H](C)NC(=O)[C@H](CCSC)NC(=O)[C@H](Cc1ccccc1)NC(=O)[C@@H](NC(=O)CNC(=O)[C@H](Cc1ccccc1)NC(=O)[C@H](CCCCN)NC(=O)CNC(=O)CNC(=O)[C@H](CCCCN)NC(=O)[C@H](CCCCN)NC(=O)[C@H](CCSC)NC(=O)[C@H](CCSC)NC(=O)[C@H](CCCCN)NC(=O)[C@@H](N)CCCCN)[C@@H](C)O)[C@@H](C)CC)C(=O)N[C@@H](CCCNC(=N)N)C(=O)O [AMPR-22] (H-KKMMKKGGKFGTFMAIGGIR-OH)
MBC Value, P. aeruginosa ([1]; ATCC 27853, 1 h): 2 µg/mL (≈ 0.915 µM)
MBC Value, Pseudomonas aeruginosa ([1]; Table 2, ATCC 27853, modified MBC): 2 µg/mL (≈ 0.915 µM)
MBC Value, S. aureus ([2]; ATCC 29213, 1 h, pH 7.4): 2 µg/mL (≈ 0.915 µM)
MBC Value, Staphylococcus aureus ([2]; Table 2, ATCC 29213, modified MBC): 2 µg/mL (≈ 0.915 µM)
MBC Value, Streptococcus pneumoniae [3]: 4 µg/mL (≈ 1.83 µM)
MBC Value, Acinetobacter baumannii [4]: 1 µg/mL (≈ 0.457 µM)
MBC Value, Bacillus subtilis [5]: 1 µg/mL (≈ 0.457 µM)
MBC Value, Enterobacter aerogenes [6]: 2 µg/mL (≈ 0.915 µM)
MBC Value, Enterococcus faecalis [7]: 4 µg/mL (≈ 1.83 µM)
MBC Value, Enterococcus faecium [8]: 4 µg/mL (≈ 1.83 µM)
MBC Value, Escherichia coli [9]: 1 µg/mL (≈ 0.457 µM)
MBC Value, Klebsiella pneumoniae [10]: 1 µg/mL (≈ 0.457 µM)
MBC Value, Streptomyces sindenensis [11]: 2 µg/mL (≈ 0.915 µM)
MBC Value, Vancomycin-resistant E. faecium [12]: 4 µg/mL (≈ 1.83 µM)
In vivo toxicity (weight loss or death) (BALB/c mice): No significant changes
Antibacterial activity in presence of human LDL, HDL or bovine serum albumin [13]: not affected
Functional half-life in vitro [13]: around 90 min
Half-life of antibacterial activity in mouse plasma and human serum [13]: longer than that of AMPR-11
